Measurements: ChEMBL document CHEMBL1201861, “Genomics of Drug Sensitity in Cancer screening data, Wellcome Trust Sanger Institute”

Tests used:
Experiment in all cases: cells
Type in all cases: functional, cell-based, Homo sapiens
H4 = conditions: Homo sapiens, H4
Description: SANGER: Inhibition of human H4 cell growth in a cell viability assay.

SW1088 = conditions: Homo sapiens, SW1088;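 further: growth inhibition of human SW1088 cells, read out by a cell viability assay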
Description: SANGER: Inhibition of human SW1088 cell growth in a cell viability assay.

HCC1806 = conditions: Homo sapiens, HCC1806;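 further: growth inhibition of the cancer cell line, determined with a cell viability assay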
Description: SANGER: Inhibition of human HCC1806 cell growth in a cell viability assay.

769-P = conditions: Homo sapiens, 769-P
Description: SANGER: Inhibition of human 769-P cell growth in a cell viability assay.

NCI-H2122 = conditions: Homo sapiens, NCI-H2122;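 further: growth inhibition of the cells, read out with a cell viability assay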
Description: SANGER: Inhibition of human NCI-H2122 cell growth in a cell viability assay.

NCI-H460 = conditions: Homo sapiens, NCI-H460;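 further: cell viability assay scoring growth inhibition of human NCI-H460 cells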
Description: SANGER: Inhibition of human NCI-H460 cell growth in a cell viability assay.

AGS = conditions: Homo sapiens, AGS;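 further: growth inhibition of AGS cells, determined with a cell viability assay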
Description: SANGER: Inhibition of human AGS cell growth in a cell viability assay.

NCI-H1792 = conditions: Homo sapiens, NCI-H1792;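 further: growth inhibition of human NCI-H1792 cells, read out as cell viability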
Description: SANGER: Inhibition of human NCI-H1792 cell growth in a cell viability assay.

HTC-C3 = conditions: Homo sapiens, HTC-C3;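 further: inhibition of cell growth, read out with a cell viability assay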
Description: SANGER: Inhibition of human HTC-C3 cell growth in a cell viability assay.

NCI-H1793 = conditions: Homo sapiens, NCI-H1793;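 further: cell growth inhibition, read out by a cell viability assay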
Description: SANGER: Inhibition of human NCI-H1793 cell growth in a cell viability assay.

LK-2 = conditions: Homo sapiens, LK-2;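 further: growth inhibition of LK-2 cells, read out with a viability assay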
Description: SANGER: Inhibition of human LK-2 cell growth in a cell viability assay.

SW837 = conditions: Homo sapiens, SW837;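 further: growth inhibition of SW837 cells, determined with a cell viability assay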
Description: SANGER: Inhibition of human SW837 cell growth in a cell viability assay.

CAL-72 = conditions: Homo sapiens, CAL-72;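 further: cell viability assay measuring inhibition of proliferation in the CAL-72 cell line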
Description: SANGER: Inhibition of human CAL-72 cell growth in a cell viability assay.

CAL-27 = conditions: Homo sapiens, CAL-27;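 further: Viability-based readout, IC50 reflecting inhibition of CAL-27 cell growth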
Description: SANGER: Inhibition of human CAL-27 cell growth in a cell viability assay.

HPAF-II = conditions: Homo sapiens, HPAF-II;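 further: growth inhibition of HPAF-II cells, read out with a cell viability assay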
Description: SANGER: Inhibition of human HPAF-II cell growth in a cell viability assay.

MC-IXC = conditions: Homo sapiens, MC-IXC;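 further: growth inhibition of MC-IXC cells, read out with a cell viability assay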
Description: SANGER: Inhibition of human MC-IXC cell growth in a cell viability assay.

SW1710 = conditions: Homo sapiens, SW1710;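 further: growth inhibition of SW1710 cells, determined with a cell viability assay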
Description: SANGER: Inhibition of human SW1710 cell growth in a cell viability assay.

FaDu = conditions: Homo sapiens, FaDu;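 further: cell viability readout of growth inhibition in FaDu cells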
Description: SANGER: Inhibition of human FADU cell growth in a cell viability assay.

MKN-45 = conditions: Homo sapiens, MKN-45;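 further: growth inhibition of human MKN-45 cells, measured with a cell viability assay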
Description: SANGER: Inhibition of human MKN45 cell growth in a cell viability assay.

CAL-39 = conditions: Homo sapiens, CAL-39;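 further: cell viability assay measuring growth inhibition of CAL-39 cells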
Description: SANGER: Inhibition of human CAL-39 cell growth in a cell viability assay.

ESS-1 = conditions: Homo sapiens, ESS-1;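 further: growth inhibition of human ESS-1 cells, read out by a cell viability assay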
Description: SANGER: Inhibition of human ESS-1 cell growth in a cell viability assay.

YAPC = conditions: Homo sapiens, YAPC;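 further: growth inhibition of YAPC cells, measured with a cell viability assay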
Description: SANGER: Inhibition of human YAPC cell growth in a cell viability assay.

KYSE-450 = conditions: Homo sapiens, KYSE-450;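 further: cell growth inhibition measured by a viability assay in human KYSE-450 cells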
Description: SANGER: Inhibition of human KYSE-450 cell growth in a cell viability assay.

P12-Ichikawa = conditions: Homo sapiens, P12-Ichikawa
G-401 = conditions: Homo sapiens, G-401
Description: SANGER: Inhibition of human G-401 cell growth in a cell viability assay.

MG-63 = conditions: Homo sapiens, MG-63;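 further: growth inhibition of human MG-63 cells, read out with a cell viability assay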
Description: SANGER: Inhibition of human MG-63 cell growth in a cell viability assay.

RT-112 = conditions: Homo sapiens, RT-112
Description: SANGER: Inhibition of human RT-112 cell growth in a cell viability assay.

KYSE-140 = conditions: Homo sapiens, KYSE-140;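 further: cell viability assay measuring growth inhibition in human KYSE-140 cells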
Description: SANGER: Inhibition of human KYSE-140 cell growth in a cell viability assay.

UACC-893 = conditions: Homo sapiens, UACC-893
Description: SANGER: Inhibition of human UACC-893 cell growth in a cell viability assay.

NCI-H650 = conditions: Homo sapiens, NCI-H650;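 further: growth inhibition of NCI-H650 cells, read out by a viability assay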
Description: SANGER: Inhibition of human NCI-H650 cell growth in a cell viability assay.

D-336MG = conditions: Homo sapiens, D-336MG
Description: SANGER: Inhibition of human D-336MG cell growth in a cell viability assay.

NCI-H2405 = conditions: Homo sapiens, NCI-H2405;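 further: growth inhibition of the human cell line, read out with a cell viability assay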
Description: SANGER: Inhibition of human NCI-H2405 cell growth in a cell viability assay.

CAL-51 = conditions: Homo sapiens, CAL-51;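 further: human CAL-51 cell line, growth inhibition read out via a cell viability assay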
Description: SANGER: Inhibition of human CAL-51 cell growth in a cell viability assay.

DK-MG = conditions: Homo sapiens, DK-MG;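 further: growth inhibition of DK-MG cells, read out with a cell viability assay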
Description: SANGER: Inhibition of human DK-MG cell growth in a cell viability assay.

SK-N-AS = conditions: Homo sapiens, SK-N-AS;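 further: growth inhibition of human SK-N-AS cells, measured with a cell viability assay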
Description: SANGER: Inhibition of human SK-N-AS cell growth in a cell viability assay.

YKG-1 = conditions: Homo sapiens, YKG-1;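 further: cell growth inhibition, read out with a viability assay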
Description: SANGER: Inhibition of human YKG-1 cell growth in a cell viability assay.

Row | SMILES | IC50 (H4) | IC50 (SW1088) | IC50 (HCC1806) | IC50 (769-P) | IC50 (NCI-H2122) | IC50 (NCI-H460) | IC50 (AGS) | IC50 (NCI-H1792) | IC50 (HTC-C3) | IC50 (NCI-H1793) | IC50 (LK-2) | IC50 (CAL-72) | IC50 (CAL-27) | IC50 (HPAF-II) | IC50 (MC-IXC) | IC50 (SW1710) | IC50 (FaDu) | IC50 (CAL-39) | IC50 (ESS-1) | IC50 (YAPC) | also measured
1 | CN(C)C(=N)NC(=N)N [METFORMIN] | > 20000 µM | > 20000 µM | > 20000 µM | 6920 µM | > 20000 µM | > 20000 µM | 15700 µM | > 20000 µM | > 20000 µM | 18500 µM | 9240 µM | 6270 µM | > 20000 µM | 7740 µM | 7890 µM | > 20000 µM | 11200 µM | > 20000 µM | > 20000 µM | > 20000 µM | IC50 (SW837): > 20000 µM; IC50 (MKN-45): > 20000 µM; IC50 (KYSE-450): > 20000 µM; IC50 (P12-Ichikawa): 12400 µM; IC50 (G-401): 1590 µM; IC50 (MG-63): 14000 µM; IC50 (RT-112): > 20000 µM; IC50 (KYSE-140): > 20000 µM; IC50 (UACC-893): 9970 µM
2 | CC1(C)CNc2cc(NC(=O)c3cccnc3NCc3ccncc3)ccc21 [MOTESANIB] | > 2 µM | > 2 µM | > 2 µM | > 2 µM | > 2 µM | > 2 µM | > 2 µM | > 2 µM | > 2 µM | > 2 µM | > 2 µM | > 2 µM | > 2 µM | > 2 µM | > 2 µM | > 2 µM | > 2 µM | > 2 µM | > 2 µM | > 2 µM | IC50 (NCI-H650): > 2 µM; IC50 (D-336MG): > 2 µM; IC50 (SW837): > 2 µM; IC50 (NCI-H2405): > 2 µM; IC50 (CAL-51): > 2 µM; IC50 (MKN-45): > 2 µM; IC50 (KYSE-450): > 2 µM; IC50 (P12-Ichikawa): > 2 µM; IC50 (G-401): > 2 µM; IC50 (DK-MG): > 2 µM; IC50 (MG-63): > 2 µM; IC50 (RT-112): 1.59 µM; IC50 (SK-N-AS): > 2 µM; IC50 (KYSE-140): > 2 µM; IC50 (YKG-1): > 2 µM; IC50 (UACC-893): > 2 µM
3 | Cn1cnc2c(F)c(Nc3ccc(Br)cc3Cl)c(C(=O)NOCCO)cc21 [SELUMETINIB] | > 4 µM | > 4 µM | > 4 µM | 3.74 µM | > 4 µM | 2.8 µM | 1.12 µM | > 4 µM | 0.215 µM | > 4 µM | > 4 µM | > 4 µM | 3.06 µM | 3.34 µM | > 4 µM | > 4 µM | > 4 µM | 0.332 µM | > 4 µM | > 4 µM | IC50 (NCI-H650): > 4 µM; IC50 (NCI-H2405): > 4 µM; IC50 (CAL-51): > 4 µM; IC50 (KYSE-450): > 4 µM; IC50 (P12-Ichikawa): 1.16 µM; IC50 (G-401): > 4 µM; IC50 (DK-MG): > 4 µM; IC50 (MG-63): > 4 µM; IC50 (RT-112): 2.26 µM; IC50 (SK-N-AS): 0.0928 µM; IC50 (KYSE-140): > 4 µM; IC50 (YKG-1): > 4 µM
4 | CCN(CC)CCCCNc1ncc2cc(-c3cc(OC)cc(OC)c3)c(NC(=O)NC(C)(C)C)nc2n1 [PD-173074] | > 2 µM | > 2 µM | > 2 µM | > 2 µM | > 2 µM | > 2 µM | > 2 µM | > 2 µM | > 2 µM | > 2 µM | > 2 µM | > 2 µM | > 2 µM | > 2 µM | > 2 µM | > 2 µM | > 2 µM | > 2 µM | > 2 µM | > 2 µM | IC50 (NCI-H650): > 2 µM; IC50 (D-336MG): > 2 µM; IC50 (SW837): > 2 µM; IC50 (NCI-H2405): > 2 µM; IC50 (CAL-51): > 2 µM; IC50 (MKN-45): > 2 µM; IC50 (KYSE-450): > 2 µM; IC50 (P12-Ichikawa): > 2 µM; IC50 (G-401): > 2 µM; IC50 (DK-MG): > 2 µM; IC50 (MG-63): > 2 µM; IC50 (RT-112): 0.547 µM; IC50 (SK-N-AS): > 2 µM; IC50 (KYSE-140): > 2 µM; IC50 (YKG-1): > 2 µM; IC50 (UACC-893): > 2 µM
5 | COc1cc2c(Nc3ccc(NC(=O)c4ccccc4)cc3)ncnc2cc1OCCCN1CCOCC1 | 1.82 µM | > 4 µM | > 4 µM | > 4 µM | > 4 µM | 3.07 µM | > 4 µM | > 4 µM | > 4 µM | > 4 µM | 1.65 µM | > 4 µM | > 4 µM | > 4 µM | > 4 µM | > 4 µM | > 4 µM | > 4 µM | > 4 µM | > 4 µM | IC50 (NCI-H650): > 4 µM; IC50 (D-336MG): > 4 µM; IC50 (SW837): > 4 µM; IC50 (NCI-H2405): > 4 µM; IC50 (CAL-51): 1.84 µM; IC50 (MKN-45): > 4 µM; IC50 (KYSE-450): > 4 µM; IC50 (P12-Ichikawa): 0.224 µM; IC50 (G-401): > 4 µM; IC50 (DK-MG): > 4 µM; IC50 (MG-63): > 4 µM; IC50 (RT-112): 2.66 µM; IC50 (SK-N-AS): > 4 µM; IC50 (KYSE-140): > 4 µM; IC50 (YKG-1): 3.14 µM; IC50 (UACC-893): > 4 µM
